How the values were obtained:
[1] = test system: KYSE70 esophageal cancer cells; experiment: Cell viability (MTT), KYSE70; type: cell-based; conditions: KYSE 70, 72 hours
Experimental: (§1) Cell viability (MTT) and CFSE Proliferation assay: Cells were plated in 96-well plates and let adhere overnight. After cell treatment, cell viability was measured by 3-(4,5-dimethylthiazol-2-yl)-2,5-diphenyl tetrazolium bromide (MTT) assay (CellTiter 96® Aqueous, Promega, Madison, Wis.).
(§2) Cell viability and detachment assays: After cells were treated with siRNA transfection, cell viability was measured by 3-(4,5-dimethylthiazol2-yl)-2,5-diphenyl tetrazolium bromide (MTT) assay (CellTiter 96® AQueous, Promega, Madison, Wis.). Briefly, 20 μl of the tetrazolium compound was added to each well. The cells were then incubated at 37° C. for 1 h. The plate was read at 490 nm with a plate reader to determine the viability. In detachment assays, detached and attached cells were harvested separately and counted in a hemocytometer. The percentage of detachment was calculated by dividing the number of detached cells by the total number of cells. Apoptosis assays: After treatment, attached and detached cells were collected, counted and prepared for terminal uridine deoxynucleotidyl transferase (TUNEL) assay by utilizing an APO-BRDU kit (BD Pharmingen, San Diego, Calif.) according to the manufacturer's instructions. Stained cells were analyzed with a fluorescence-activated cell sorting-Calibur flow cytometer (BD Biosciences). Calculation of the percentage of apoptotic cells in the sample was completed with CellQuest software (BD Biosciences). Apoptotic cells were also analyzed by Hoechst staining. Hoechst 33342 ([…]) was added to the fixed cells and the specimens were mounted on glass coverslips. The slides were viewed under the Zeiss microscope for apoptotic nuclei. The percent of apoptotic cells was calculated as the ratio of apoptotic cells to total number of cells.
(§3) In addition, the effect of INT2-31 on cell viability of esophageal, pancreatic and breast cancer cell lines was analyzed and the IC50 value for each cell line was determined, as shown in Table 1. […] Similar to melanoma results, INT2-31 inhibits viability more in cancer cells compared to normal cells. Sensitivity of the cells to INT2-31 varied and directly correlated to the FAK and IGF-1R expression level of the cells.

[2] = test system: KYSE140 esophageal cancer cells; experiment: Cell viability (MTT), KYSE140; type: cell-based; conditions: KYSE 140, 72 hours
Experimental: as §1, §2, §3

FAK-NT2 and IGF-1R = target: T1, FAK-NT2 and IGF-1R (Homo sapiens, UniProt Q05397); experiment: Immunofluorescent staining and confocal microscopy, colocalization; type: cell-based; conditions: cells transfected in the presence of the compound
T1 construct: FAK-NT2 (a.a. 127-243); expressed in transfected cells
T1 sequence (Q05397 127-243): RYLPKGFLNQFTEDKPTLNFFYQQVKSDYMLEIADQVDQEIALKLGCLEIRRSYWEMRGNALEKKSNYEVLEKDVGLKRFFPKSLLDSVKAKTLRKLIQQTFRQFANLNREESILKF
Experimental: Cells were fixed in 3.7% paraformaldehyde in 1×PBS for 10 min and permeabilized with 0.5% Triton X-100 for 5 minutes. Cells were then washed with 1×PBS, blocked with 25% normal goat serum in 1×PBS for 20 min and incubated with primary antibody (1:200 dilution in 25% goat serum) for 30 min at room temperature. After washing three times with 1×PBS, cells were incubated with a Texas Red-conjugated secondary antibody (1:400 dilution in 25% goat serum) for 30 min at room temperature and washed another three times with 1×PBS before observed under the microscope. For coimmunostaining experiments, cells were incubated with another primary antibody diluted 1:100 in 25% goat serum for 1 h. After washing three times with 1×PBS, a fluorescein isothiocyanate-conjugated secondary antibody (1:100 dilution) was applied to the coverslip. Cells immunostained with FAK and IGF-IR antibodies were evaluated for colocalization with a Leica confocal microscope and the MRC-1024 confocal laser scanning system. Cells treated with FAK-CD or FAK siRNA with or without test compound were stained with FAK antibody and evaluated for displacement of FAK from the focal adhesions with a Zeiss microscope. […] Colocalization is low for FAK-NT1, FAK-NT3 and FAK-CD.

A375 melanoma cells = experiment: Cell viability (MTT), A375; type: cell-based, human; conditions: A375, MTT
Experimental: as §1, §2
as §3, with “Sensitivity of the cells to INT2-31 varied and directly correlated to the FAK and IGF-1R expression level of the cells.” left out

C8161 melanoma cells [3] = experiment: Cell viability (MTT), C8161; type: cell-based, human; conditions: C8161, MTT
Experimental: as §1, §2, §3
To determine the effect on melanoma cell viability, three human melanoma cell lines were exposed to increasing doses of INT2-31 for 72 h and the results compared to human melanocytes. […] The effects of INT2-31 varied in the three cell lines and was possibly related to constitutive FAK and IGF-1R activation with the least sensitive cell line (SK-MEL-28) having the greatest expression of FAK and IGF-1R.

[4] = test system: FAK +/+ and FAK −/− mouse embryonic fibroblast; experiment: MTT assay on FAK wildtype and null fibroblasts; type: cell-based; conditions: MTT, p<0.05
Experimental: as §1
(§4) Cell proliferation assay: Cell proliferation assay (Promega) using CellTiter 96 aqueous one solution was performed by adding a small amount of the One Solution Reagent directly to culture wells, incubating for 1-4 hours and then recording absorbance at 490 nm with a spectrophotometric plate reader. The quantity of formazan product as measured by the amount of 490 nm absorbance was directly proportional to the number of living cells in culture.
as §2

IGF-1R+/+ and −/− MEFs = experiment: MTT assay on IGF-1R wildtype and null fibroblasts; type: cell-based, mouse; conditions: MTT, p<0.05
Experimental: as §1, §4, §2

C8161 melanoma cells [5] = experiment: Detachment assay, C8161 cells; type: cell-based, human; conditions: INT2-31 5 μM at 72 h; TAE 226 at 48 h and 72 h
Experimental: In detachment assays, detached and attached cells were harvested separately and counted in a hemocytometer. The percentage of detachment was calculated by dividing the number of detached cells by the total number of cells.
Detachment assay: Cells were plated with and without compound for 24, 48, and 72 h, and detached and attached cells were counted in a hemocytometer. The percent of detachment was calculated by dividing the number of detached cells by the total number of cells and experiments performed in triplicate. Apoptosis assays: After treatment, attached and detached cells were collected, counted and prepared for terminal uridine deoxynucleotidyl transferase (TUNEL) assay by utilizing an APO-BRDU kit (BD Pharmingen, San Diego, Calif.) and cells analyzed with a FACSCalibur cytometer (Becton Dickinson, San Jose, Calif.). In addition, apoptotic cells were analyzed with Hoechst 33342 staining (1 μg/ml). The percent of apoptotic cells was calculated as the ratio of apoptotic cells to total number of cells.

O=c1[nH]cc(F)c(=O)[nH]1 [5-FU, 5-Fluorouracil, reference compound]
sensitivity of cells to single-agent treatment [1]: sensitive
sensitivity of cells to single-agent treatment [2]: sensitive

CC(=O)C1=C(O)C2(C)c3c(O)c(C)c(O)c(C(C)=O)c3OC2(Sc2ccccc2)CC1=O (centres unmarked) [NSC 250435, 1,1′-(1,7,9-Trihydroxy-8,9b-dimethyl-3-oxo-4-a-(phenylthio)-3,4,4a,9b-tetrahydrodibenzo-[b,d]furan-2,6-diyl)diethanone]
percentage of interaction between FAK-NT2 and IGF-1R (FAK-NT2 and IGF-1R): around 30%
cell viability (in words) (A375 melanoma cells): inhibited cell viability
cell viability (in words) (C8161 melanoma cells [3]): inhibited cell viability

Nc1ncnc2c1c(-c1cccc(OCc3ccccc3)c1)cn2C1CC(CN2CCC2)C1 (centres unmarked) [NVP AEW541, reference compound]
effect on FAK wildtype compared to null fibroblasts [4]: increased effect
effect on IGF-1R wildtype compared to null fibroblasts (IGF-1R+/+ and −/− MEFs): increased effect

CNC(=O)c1ccccc1Nc1nc(Nc2ccc(N3CCOCC3)cc2OC)ncc1Cl [TAE 226, reference compound]
effect on detachment (in words) (C8161 melanoma cells [5]): Greater effects

— patent publication US20120107323A1, “KINASE PROTEIN BINDING INHIBITORS” (University of Florida, priority 2009, published 2012)
